Laboratory results taken from article PMC7118123, “Evidence for functional selectivity in TUDC- and norUDCA-induced signal transduction via α5β1 integrin towards choleresis” (Scientific Reports, 2020).

Target: T1, α5β1 integrin (Homo sapiens, UniProt P05556+P08648)
T1 construct: gene ITGA5; soluble human α5β1-integrin (R&D); with integrin α5 (ITGA5, P08648)
Assay: competitive ELISA-like solid-phase binding assay against immobilized fibronectin

| Compound | IC50 [mM] |
| --- | --- |
| C[C@H](CCC(=O)NCCS(=O)(=O)O)[C@H]1CC[C@H]2[C@@H]3[C@@H](O)C[C@@H]4C[C@H](O)CC[C@]4(C)[C@H]3CC[C@]12C [TUDC] | 4.01 |
| C[C@H](CC(=O)O)[C@H]1CC[C@H]2[C@@H]3C(O)C[C@@H]4C[C@H](O)CC[C@]4(C)[C@H]3CC[C@]12C (some centres unmarked) [norUDCA] | 3.93 |
